From patent US8540999B2, “Allergenic proteins and peptides from Japanese cedar pollen” (Merck Patent GmbH, priority 1991, dated 2013)
“Also recorded” adds a separate entry of the source. One block for each molecule: values may come before it. Ends that are not written are not given here.

What was measured:
[1] = Solubility, single pH point protocol procedure; format: physicochemical; details: 100 mM sodium phosphate buffer without mannitol, constant agitation
Description: (§1) Additional truncation of two C-terminal residues yielded 44.2 (SEQ ID NO: ). […] Thus, 44.2 (SEQ ID NO: ) was further modified by the addition of charged (hydrophilic residues) to the N-terminus and by replacement of the hydrophobic residue Val with the less hydrophobic residue Ala. […] CJI-44.8 (SEQ ID NO: 132) was stable and soluble at greater than 5 mg/ml over the pH range pH6-pH8 in an aqueous buffer.

[2] = Solubility testing of parent and truncated peptides (protocol not stated); format: physicochemical
Source text: For example, the amino acid sequence of CJI-44.8 (SEQ ID NO: 132) was derived from the protein sequence of Cry j I by first identifying those regions of the parent protein with high T cell reactivity using the set of overlapping peptides 20-mers as discussed in Example 6, and shown in FIG. 13, which covered the entire sequence. […] Since these peptides were adjacent to each other in the native protein sequence and overlapped by 10 residues, peptide CJI-44 was synthesized to capture the total T cell reactivity of both peptides. CJI-44 (SEQ ID NO: 90) (FIG. 18) is a peptide 30-mer which contains all of the sequence present in the two 20-mers CJI-31 (SEQ ID NO: 54) and CJI-32 (SEQ ID NO: 56).
as §1

[3] = Solubility, pH range protocol procedure; format: physicochemical; details: aqueous sodium phosphate buffer, pH range pH6 to pH8
Source text: (§2) Of the above group of modified peptides, several peptides have been identified as “unique” modified peptides. […] Certain modified peptides are characterized as “unique” due to the difficulties encountered when developing a modified peptide which meets all of the stringent requirements of a “unique” peptide defined herein. In many cases, multiple modifications of a parent peptide are attempted prior to identifying a modified derivitive peptide which meets all the characteristics of a “unique” modified peptide. Unique modified peptides are particularly useful as candidate peptides for formulating injectable multipeptide therapeutic formulations of the invention because “unique” modified peptides are soluble and stable in the same physiologically acceptable pH range as well as elicit the necessary T cell reactivity of a therapeutic peptide of the invention. “Unique” modified peptides of the invention include but are not limited to the following group of modified peptides: CJ1-24.5, CJ1-43.39, CJ1-43.50, CJ1-44.8, and CJ1-44.9 all as shown in FIGS. 20 and 44. Example 21 describes the development and identification of “unique” modified peptides of the invention.
as §1

[4] = Stability in aqueous buffer; format: physicochemical; details: pH6 to pH8
Source text: as §2, §1

patients' plasma IgE = experiment: Direct binding assay of IgE to Cry j I, Cry j II and recombinant Cry j II (Example 18); set-up: species or system human
Description: Costar assay plates were coated with Cry j I or Cry j II at 2 μg/mL or recombinant Cry j II preparation at 10 μg/mL (approximately 20% pure) in a volume of 50 μL overnight at 4° C. The coating antigens were removed and the wells were blocked with 0.5% gelatin, PVP (polyvinyl pyrolidine) 1 mg/mL in PBS, 200 μL/well for 2 hours at room temperature. The anti-Cry j I monoclonal antibody, 4B11, was serially diluted in PBS-Tween 20 starting at a 1:1000 dilution. The human plasma were serially diluted in PBS-Tween at a starting dilution of 1:2. For this set 23 plasma samples from patients symptomatic for Japanese cedar pollen allergy chosen for IgE binding analysis. The first antibody incubation proceeded overnight at 4° C. Following three washes with PBS-Tween the second antibodies were added (biotinylated goat anti-mouse Ig or goat anti-human IgE both at 1:2000) and incubated for two hours at room temperature at 100 μL/well. After washing 3 times, […]. This solution was removed and streptavidin-HRPO diluted to 1:10,000, was added at 100 μL/well. The color was allowed to develop for 2-5 minutes. The reaction was stopped by the addition of 100 μL/well of 1M phosphoric acid. Plates were read on a Microplate IL310 Autoreader (Biotek Instruments, Winooski, Vt.) with a 450 nm filter. The absorbance levels of duplicate wells were averaged. A positive binding result, indicated by a plus sign is determined to be a reading of two-fold or greater above background (no first antibody) at the second dilution of plasma ([…]).

[5] = system: Cry j II reactive T cells; experiment: T cell proliferation assay, Cry j II primed T cell lines (Example 19); format: cell-based, human
Description: Long term T cell lines were established by stimulation of 2×10^6 PBL/ml in bulk cultures of complete medium (RPMI-1640, 2 mM L-glutamine, 100 U/ml penicillin/streptomycin, 5×10^−5M 2-mercaptoethanol, and 10 mM HEPES supplemented with 5% heat inactivated human AB serum) with 10 μg/ml of partially purified native Cry j II for 7 days at 37° C. in a humidified 5% CO2 incubator to select for Cry j II reactive T cells. This amount of priming antigen was determined to be optimal for the activation of T cells from most Japanese cedar pollen Cry j II allergic patients. Viable cells were purified by LSM centrifugation and cultured in complete medium supplemented with 5 units recombinant human IL-2/ml and 5 units recombinant human IL-4/ml for up to three weeks until the cells no longer responded to lymphokines and were considered “rested”. The ability of the T cells to proliferate to peptides Cry j IIA (SEQ ID NO: 185) and Cry j IIB (SEQ ID NO: 186), recombinant Cry j II (rCry j II) (SEQ ID NO: 134), purified native Cry j II, was then assessed. For assay, 2×10^4 rested cells were restimulated in the presence of 2×10^4 autologous Epstein-Barr virus (EBV)-transformed B cells (prepared as described in Example 6) (gamma-irradiated with 25,000 RADS) with 2-50 ’g/ml of rCry j II (SEQ ID NO: 134), purified native Cry j II, peptides Cry j IIA (SEQ ID NO: 185) and Cry j IIB (SEQ ID NO: 186), positive control (PHA), negative control (Amb a I.1), in a volume of […] complete medium in duplicate or triplicate wells in 96-well round bottom plates for 2-4 days. […] Each well then received 1 μCi tritiated thymidine for 16-20 hours. The counts incorporated were collected onto glass fiber filter mats and processed for liquid scintillation counting. The maximum response in a titration of each peptide is expressed as the stimulation index (S.I.). The S.I. is the counts per minute (CPM) incorporated by cells in response to peptide, divided by the CPM incorporated by cells in medium only. A positivity index may be calculated by multiplying the mean S.I. (indicated above each bar in FIGS. 42 and 43) by the percentage of individuals responding to the peptide (indicated in parentheses above each bar in FIGS. 42 and 43). […]

IgE antibodies = details: Sakaguchi (1990), cited from earlier work
Arthus reaction = details: Usui et al. (1990); cited from earlier work

Molecule: NGAYFVSSGKYEGGNIYTKKEAFNVE [CJ1-44.1]
solubility ([2]; truncated analogs of CJI-44): solubility was improved in these sequences it still did not reach the standard

Molecule: NGAYFVSSGKYEGGNIYTKKEAFN [CJ1-44.2]
solubility ([2]; truncated analogs of CJI-44): solubility was improved in these sequences it still did not reach the standard

Molecule: DEENGAYFVSSGKYEGGNIYTKKEAFNVE [CJ1-44.6]
solubility [1]: increased solubility

B1: purified native Cry j II: second Japanese cedar pollen allergen, purified native protein (protein)
chain: RKVEHSRHDAINIFNVEKYGAVGDGKHDCTEAFSTAWQAACKNPSAMLLVPGSKKFVVNNLFFNGPCQPHFTFKVDGIIAAYQNPASWKNNRIWLQFAKLTGFTLMGKGVIDGQGKQWWAGQCKWVNGREICNDRDRPTAIKFDFSTGLIIQGLKLMNSPEFHLVFGNCEGVKIIGISITAPRDSPNTDGIDIFASKNFHLQKNTIGTGDDCVAIGTGSSNIVIEDLICGPGHGISIGSLGRENSRAEVSYVHVNGAKFIDTQNGLRIKTWQGGSGMASHIIYENVEMINSENPILINQFYCTSASACQNQRSAVQIQDVTYKNIRGTSATAAAIQLKCSDSMPCKDIKLSDISLKLTSGKIASCLNDNANGYFSGHVIPACKNLSPSAKRKESKSHKHPKTVMVENMRAYDKGNRTRILLGSRPPNCTNKCHGCSPCKAKLVIVHRIMPQEYYPQRWICSCHGKIYHP
frequency of IgE response (patients' plasma IgE; 23 plasma samples, FIG. 40): less
plasma IgE binding response (patients' plasma IgE; patient #1034): very strong reactivity
plasma IgE binding response (patients' plasma IgE; patient plasma samples, FIGS. 31-33): binds human IgE of some allergic patients; also recorded: lower overall response
T cell proliferative response ([5]; 9 patients, FIG. 43): react
T cell proliferative response ([5]; n=6 patients, FIG. 42): respond well
immunological cross-reactivity with Cry j I (IgE antibodies; Kawashima et al. (1992)): no immunological cross-reactivity
allergic patients with IgE that only reacted with this allergen (IgE antibodies): 14%

B2: Sugi basic protein (i.e., Cry j I)-pullulan conjugate: Sugi basic protein covalently linked to pullulan, Usui et al. (1990) (conjugate, UniProt P18632 22-374, looked up)
Pectate lyase 1: DNPIDSCWRGDSNWAQNRMKLADCAVGFGSSTMGGKGGDLYTVTNSDDDPVNPAPGTLRYGATRDRPLWIIFSGNMNIKLKMPMYIAGYKTFDGRGAQVYIGNGGPCVFIKRVSNVIIHGLYLYGCSTSVLGNVLINESFGVEPVHPQDGDALTLRTATNIWIDHNSFSNSSDGLVDVTLTSTGVTISNNLFFNHHKVMLLGHDDAYSDDKSMKVTVAFNQFGPNCGQRMPRARYGLVHVANNNYDPWTIYAIGGSSNPTILSEGNSFTAPNESYKKQVTIRIGCKTSSSCSNWVWQSTQDVFYNGAYFVSSGKYEGGNIYTKKEAFNVENGNATPQLTKNAGVLTCSLSKRC
modifications: pullulan conjugate
ability to elicit the Arthus reaction, relative to native Sugi basic protein (Arthus reaction): about 1,000 times lower

Further lines, results first:

solubility [1]: increased solubility
Molecule: DENGAYFVSSGKYEGGNIYTKKEAFNAE [CJ1-44.5]

solubility ([2]; protocol not stated, read-out: solubility): < 5000 µg/mL
Molecule: DVFYNGAYFVSSGKYEGGNIYTKKEAFNVE [CJ1-44]

solubility [3]: > 5000 µg/mL
stability [4]: stable
solubility [1]: very soluble
Molecule: DEEGAYFVSSGKYEGGNIYTKKEAFNVE [CJ1-44.8]
